Measurements as given in patent US20190177371A1, “NOVEL MODULATORS OF MELANOCORTIN RECEPTORS” (ARIZONA BOARD OF REGENTS ON BEHALF OF THE UNIVERSITY OF …, priority 2014, published 2019).

What was measured:
hMC1R [1] = molecular target: T1, hMC1R (Homo sapiens, UniProt Q01726); assay: Adenylate cyclase (cAMP) assay in HEK293 cells expressing hMC1R
hMC5R [2] = molecular target: T2, hMC5R (Homo sapiens, UniProt P33032); assay: Adenylate cyclase (cAMP) assay in HEK293 cells expressing hMC5R
hMC4R [3] = molecular target: T3, hMC4R (Homo sapiens, UniProt P32245); assay: Adenylate cyclase (cAMP) assay in HEK293 cells expressing hMC4R
hMC3R [4] = molecular target: T4, hMC3R (Homo sapiens, UniProt P41968); assay: Adenylate cyclase (cAMP) assay in HEK293 cells expressing hMC3R
hMC4R [5] = molecular target: T3, hMC4R; assay: Competitive binding assay with [125I]-NDP-α-MSH on whole HEK293 cells expressing hMC4R
Procedure: (§1) The pharmacological characterization for the binding efficiencies greater than 70% are defined as competitive binding, binding efficiency less than 70% are non-competitive binding.
(§2) Receptor Binding Assay. Competition binding experiments were carried out using both of cloned cell line and melanoma cells (A375, ATCC). The whole HEK293 cells stably expressing human MC1, MC3, MC4, and MC5 receptors as described before. […] The assay medium was subsequently removed, the cells were washed once with basic medium, and then lysed by the addition of 100 μL of 0.1M NaOH and 100 μL of 1% Triton X-100.

hMC5R [6] = molecular target: T2, hMC5R; assay: Competitive binding assay with [125I]-NDP-α-MSH on whole HEK293 cells expressing hMC5R
Procedure: as §1, §2

hMC3R [7] = molecular target: T4, hMC3R; assay: Competitive binding assay with [125I]-NDP-α-MSH on whole HEK293 cells expressing hMC3R
Procedure: as §1, §2

hMC1R [8] = molecular target: T1, hMC1R; assay: Competitive binding assay with [125I]-NDP-α-MSH on whole HEK293 cells expressing hMC1R
Procedure: as §1, §2

T3 sequence (P32245 whole entry): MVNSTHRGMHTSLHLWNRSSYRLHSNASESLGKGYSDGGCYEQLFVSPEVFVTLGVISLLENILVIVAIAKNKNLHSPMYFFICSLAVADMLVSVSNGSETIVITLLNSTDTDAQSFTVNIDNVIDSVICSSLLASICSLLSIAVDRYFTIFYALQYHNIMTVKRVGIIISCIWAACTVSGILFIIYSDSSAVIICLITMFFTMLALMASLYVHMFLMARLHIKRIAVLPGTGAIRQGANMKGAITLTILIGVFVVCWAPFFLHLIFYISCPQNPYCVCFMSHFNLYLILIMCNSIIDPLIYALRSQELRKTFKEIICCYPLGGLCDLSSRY
T4 sequence (P41968 whole entry): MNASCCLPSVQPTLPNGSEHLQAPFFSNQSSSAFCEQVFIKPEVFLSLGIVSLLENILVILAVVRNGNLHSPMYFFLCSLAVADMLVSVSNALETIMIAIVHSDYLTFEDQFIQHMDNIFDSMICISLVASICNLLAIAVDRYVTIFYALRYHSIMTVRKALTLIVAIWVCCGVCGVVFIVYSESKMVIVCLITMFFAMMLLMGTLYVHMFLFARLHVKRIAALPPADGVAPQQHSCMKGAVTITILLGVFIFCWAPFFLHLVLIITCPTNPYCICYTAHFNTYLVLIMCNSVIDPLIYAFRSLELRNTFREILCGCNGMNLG
T1 sequence (Q01726 whole entry): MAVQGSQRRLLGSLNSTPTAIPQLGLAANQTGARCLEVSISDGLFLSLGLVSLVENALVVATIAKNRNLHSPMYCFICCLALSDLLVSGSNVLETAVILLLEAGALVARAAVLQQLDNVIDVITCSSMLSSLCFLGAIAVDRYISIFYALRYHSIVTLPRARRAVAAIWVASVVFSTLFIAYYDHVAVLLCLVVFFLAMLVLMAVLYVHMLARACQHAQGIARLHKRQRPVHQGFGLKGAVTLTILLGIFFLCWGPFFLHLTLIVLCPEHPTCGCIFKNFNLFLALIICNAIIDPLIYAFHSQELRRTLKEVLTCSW
T2 sequence (P33032 whole entry): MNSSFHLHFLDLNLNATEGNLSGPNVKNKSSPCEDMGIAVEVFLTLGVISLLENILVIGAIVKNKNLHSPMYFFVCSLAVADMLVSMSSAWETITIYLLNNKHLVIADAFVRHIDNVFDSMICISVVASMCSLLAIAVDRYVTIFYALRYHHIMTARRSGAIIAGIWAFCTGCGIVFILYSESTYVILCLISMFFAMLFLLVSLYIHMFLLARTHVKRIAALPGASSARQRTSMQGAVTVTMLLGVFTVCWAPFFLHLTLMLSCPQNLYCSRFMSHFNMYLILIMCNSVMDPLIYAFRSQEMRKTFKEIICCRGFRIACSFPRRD

Row | Substance | functional (cAMP) activity at hMC1R (in words) (hMC1R [1]) | functional (cAMP) activity at hMC5R (in words) (hMC5R [2]) | functional (cAMP) activity at hMC4R (in words) (hMC4R [3]) | functional (cAMP) activity at hMC3R (in words) (hMC3R [4]) | binding affinity at hMC4R (in words) (hMC4R [5]) | binding affinity at hMC5R (in words) (hMC5R [6]) | binding affinity at hMC3R (in words) (hMC3R [7]) | binding affinity at hMC1R (in words) (hMC1R [8])
1 | Ac-Nle-c[Asp-(NMe)His-(NMe)nal-Arg-Trp-(NMe)Lys]-NH2 [Peptide 22] | all functional activities are abolished | all functional activities are abolished | all functional activities are abolished | all functional activities are abolished |  |  |  | 
2 | Ac-Nle-c[Asp-(NMe)His-(NMe)nal-Arg-Trp-Lys]-NH2 [Peptide 5] |  |  |  |  | drastical loss of binding affinity |  |  | 
3 | Ac-Nle-c[Asp-(NMe)His-(NMe)nal-Arg-Trp-Lys]-NH2 [Peptide 16] | universal antagonist | universal antagonist | universal antagonist | universal antagonist |  |  |  | 
4 | Ac-Nle-c[Asp-(NMe)His-nal-(NMe)Arg-(NMe)Trp-Lys]-NH2 [Peptide 24] | selective partial agonist activity | selective partial agonist activity |  |  |  |  |  | 
5 | Ac-Nle-c[Asp-(NMe)His-nal-(NMe)Arg-Trp-(NMe)Lys]-NH2 [Peptide 21] |  | retains agonist activity |  |  |  |  |  | 
6 | Ac-Nle-c[Asp-(NMe)His-nal-Arg-(NMe)Trp-(NMe)Lys]-NH2 [Peptide 19] | no activities | no activities | no activities | no activities | good binding | good binding | good binding | good binding
7 | Ac-Nle-c[Asp-(NMe)His-nal-Arg-(NMe)Trp-Lys]-NH2 [Peptide 13] |  | moderate selective antagonist |  |  |  |  |  | 
8 | Ac-Nle-c[Asp-(NMe)His-nal-Arg-Trp-(NMe)Lys]-NH2 [Peptide 10] | selective agonist activities |  |  |  |  |  |  | 
9 | Ac-Nle-c[Asp-His-(NMe)nal-(NMe)Arg-(NMe)Trp-Lys]-NH2 [Peptide 23] | all functional activities are abolished | all functional activities are abolished | all functional activities are abolished | all functional activities are abolished |  |  |  | 
10 | Ac-Nle-c[Asp-His-(NMe)nal-(NMe)Arg-Trp-(NMe)Lys]-NH2 [Peptide 20] | almost a universal antagonist activity | almost a universal antagonist activity | almost a universal antagonist activity | very weak activity |  |  |  | 
11 | Ac-Nle-c[Asp-His-(NMe)nal-(NMe)Arg-Trp-Lys]-NH2 [Peptide 14] | partial agonistic activities |  | partial agonistic activities | partial agonistic activities |  |  |  | 
12 | Ac-Nle-c[Asp-His-(NMe)nal-Arg-(NMe)Trp-(NMe)Lys]-NH2 [Peptide 18] | full agonist activity |  | partial agonist |  |  |  |  | 
13 | Ac-Nle-c[Asp-His-(NMe)nal-Arg-Trp-(NMe)Lys]-NH2 [Peptide 9] |  | very selective antagonist |  |  | drastically lost |  | drastically lost | drastically lost
14 | Ac-Nle-c[Asp-His-nal-(NMe)Arg-Trp-(NMe)Lys]-NH2 [Peptide 8] | potent agonist |  |  | potent antagonist | decreases by 3 orders of magnitude |  | increases | 
15 | Ac-Nle-c[Asp-His-nal-Arg-(NMe)Trp-Lys]-NH2 [Peptide 3] | greater loss of functional activity | selective agonist |  |  |  |  |  | 
